In ChEMBL document CHEMBL1201862, “PubChem BioAssay data set” (2004):
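All cell lines were grown in 96-well plates and treated with compound for 48 hours. Abbreviation: GI50, concentration required for 50% inhibition of growth.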 The source made the active and inactive calls. Rule as the data show it: active = GI50 up to about 1.1 µM and inactive = higher.

Columns and labels:
Experiment in all cases: growth of human tumour cells (NCI), 48 h
[1] = tested on: ACHN
[2] = tested on: BT-549
[3] = tested on: SNB-75
[4] = tested on: SF-295
[5] = tested on: RPMI-8226
[6] = tested on: OVCAR-3
[7] = tested on: SR
[8] = tested on: OVCAR-5
[9] = tested on: UACC-257
[10] = tested on: A498
[11] = tested on: SF-539
[12] = tested on: NCI-H23
[13] = tested on: HCC 2998
[14] = tested on: HCT-15
[15] = tested on: NCI-H460
[16] = tested on: OVCAR-8
[17] = tested on: HL-60
[18] = tested on: SK-MEL-2
[19] = tested on: K562
[20] = tested on: MDA-MB-231

| SMILES | GI50 [1] | GI50 [2] | GI50 [3] | GI50 [4] | GI50 [5] | GI50 [6] | GI50 [7] | GI50 [8] | GI50 [9] | GI50 [10] | GI50 [11] | GI50 [12] | GI50 [13] | GI50 [14] [µM] | GI50 [15] | GI50 [16] | GI50 [17] | GI50 [18] | GI50 [19] | GI50 [20] |
| --- | --- | --- | --- | --- | --- | --- | --- | --- | --- | --- | --- | --- | --- | --- | --- | --- | --- | --- | --- | --- |
| COc1cccc(NC(=O)CC(=O)N2N=C(C)C(/N=N/c3ccc(S(=O)(=O)CCOS(=O)(=O)O)cc3)C2=O)c1 (stereo not drawn) | 3.99 µM (inactive) | 3.35 µM (inactive) | 3.27 µM (inactive) | 15.3 µM (inactive) | 2.75 µM (inactive) | 4.21 µM (inactive) | 1.45 µM (inactive) | 29.3 µM (inactive) | 8.93 µM (inactive) | 10.8 µM (inactive) | 12.5 µM (inactive) | 4.69 µM (inactive) | 15.5 µM (inactive) | 3.42 | 4.49 µM (inactive) | 3.18 µM (inactive) | 1.66 µM (inactive) | 2.04 µM (inactive) | 2.18 µM (inactive) | 4.63 µM (inactive) |
| CSc1nncc(-c2cc3c(c(SC)n2)CCCC3)n1 | > 100 µM (inactive) | > 100 µM (inactive) | 60.7 µM (inactive) | > 100 µM (inactive) | > 100 µM (inactive) | > 100 µM (inactive) | > 100 µM (inactive) | > 100 µM (inactive) | > 100 µM (inactive) | > 100 µM (inactive) | > 100 µM (inactive) | > 100 µM (inactive) | > 100 µM (inactive) | > 100 | > 100 µM (inactive) | 54.8 µM (inactive) | > 100 µM (inactive) | > 100 µM (inactive) | > 100 µM (inactive) | > 100 µM (inactive) |
| Cn1c(=O)c2c(ncn2CCNC(CO)C(O)c2ccc([N+](=O)[O-])cc2)n(C)c1=O (stereo not drawn) | > 100 µM (inactive) | > 100 µM (inactive) | – | > 100 µM (inactive) | > 100 µM (inactive) | > 100 µM (inactive) | > 100 µM (inactive) | – | > 100 µM (inactive) | > 100 µM (inactive) | > 100 µM (inactive) | > 100 µM (inactive) | > 10 µM (inactive) | > 100 | > 100 µM (inactive) | > 100 µM (inactive) | > 100 µM (inactive) | > 100 µM (inactive) | > 100 µM (inactive) | > 100 µM (inactive) |
| C=CCOC(=O)/C(=C\c1ccc(OC)c(OC)c1)c1ccc(OC)c(OC)c1 | 56.2 µM (inactive) | > 100 µM (inactive) | 1.66 µM (inactive) | 52.1 µM (inactive) | 13.4 µM (inactive) | > 100 µM (inactive) | 22 µM (inactive) | > 100 µM (inactive) | 57.5 µM (inactive) | 78.7 µM (inactive) | > 100 µM (inactive) | 39.2 µM (inactive) | > 100 µM (inactive) | > 100 | 25.4 µM (inactive) | > 100 µM (inactive) | 15.5 µM (inactive) | 47.9 µM (inactive) | 57.8 µM (inactive) | > 100 µM (inactive) |
| C[C@@H]1C(=O)C[C@H]2C(C)(C)CCC[C@]2(C)[C@@]1(O)CCc1ccoc1 | > 100 µM (inactive) | > 100 µM (inactive) | > 100 µM (inactive) | > 100 µM (inactive) | 84.3 µM (inactive) | > 100 µM (inactive) | 11.5 µM (inactive) | > 100 µM (inactive) | > 100 µM (inactive) | > 100 µM (inactive) | > 100 µM (inactive) | > 100 µM (inactive) | > 100 µM (inactive) | > 100 | > 100 µM (inactive) | > 100 µM (inactive) | 53 µM (inactive) | > 100 µM (inactive) | > 100 µM (inactive) | > 100 µM (inactive) |
| CC(=O)[C@]1(O)Cc2c(O)c3c(c(O)c2[C@@H](OC2CC(N)C(O)C(C)O2)C1)C(=O)c1c(OCc2ccccc2)cccc1C3=O (stereo partly drawn) | 0.946 µM (active) | 3.76 µM (inactive) | 3.48 µM (inactive) | 1.23 µM (inactive) | 1.14 µM (inactive) | 2.06 µM (inactive) | 0.0933 µM (active) | 2.07 µM (inactive) | 4.06 µM (inactive) | 5.61 µM (inactive) | 1.46 µM (inactive) | 1.64 µM (inactive) | 1.34 µM (inactive) | 1.39 | 0.14 µM (active) | 1.48 µM (inactive) | 0.132 µM (active) | 17.4 µM (inactive) | 0.738 µM (active) | 1.92 µM (inactive) |
| CC(C)N(CCCNc1c2ccccc2nc2cccc([N+](=O)[O-])c12)C(C)C | < 0.0126 µM (active) | < 0.0196 µM (active) | < 0.044 µM (active) | < 0.0152 µM (active) | < 0.01 µM (active) | < 0.023 µM (active) | < 0.01 µM (active) | < 0.0191 µM (active) | < 0.0231 µM (active) | 0.0196 µM (active) | < 0.0216 µM (active) | < 0.0108 µM (active) | < 0.01 µM (active) | 0.0191 | < 0.01 µM (active) | < 0.0167 µM (active) | < 0.018 µM (active) | 0.0473 µM (active) | 0.0195 µM (active) | < 0.01 µM (active) |
